This is an account of results in patent US12043632B2, “6-heteroaryloxy benzimidazoles and azabenzimidazoles as JAK2 inhibitors” (Ajax Therapeutics, Inc., priority 2020, dated 2024).

The target in this experiment is T1, JAK2 (JH1domain-catalytic, Y1007F,Y1008F) kinase (Homo sapiens, UniProt O60674, Y1007F/Y1008F).
T1 construct: JAK2 (JH1domain-catalytic, Y1007F,Y1008F) kinase was expressed as N-terminal fusion; made in house; host or cells: transiently transfected HEK293 cells
T1 sequence (O60674 849-1124 Y1007F/Y1008F limits assumed): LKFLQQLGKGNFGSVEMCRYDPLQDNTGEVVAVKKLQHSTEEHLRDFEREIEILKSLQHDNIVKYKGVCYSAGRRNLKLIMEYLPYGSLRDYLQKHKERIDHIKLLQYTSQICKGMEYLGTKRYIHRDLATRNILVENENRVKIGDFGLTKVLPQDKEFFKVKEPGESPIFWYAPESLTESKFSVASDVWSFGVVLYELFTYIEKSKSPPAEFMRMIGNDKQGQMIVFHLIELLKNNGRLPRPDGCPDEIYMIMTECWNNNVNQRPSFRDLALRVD
As to the kind of experiment: JAK2 JH1 Domain Binding Assay. To be noted: qPCR readout. Background: In qPCR the cycle at which signal appears reflects the starting amount.
What is called Kd is a measure of binding affinity in units of concentration. Low readings indicate tighter binding, high ones weaker binding. Take `Cn1cc(C2CC2)cc(Nc2nc3ncc(Oc4cnn5ccnc(OCCN6CCOCC6)c45)c(Cl)c3n2C)c1=O` [Example I-136, 3-((7-chloro-1-methyl-6-((4-(2-morpholinoethoxy)pyrazolo[1,5-a]pyrazin-3-yl)oxy)-1H-imidazo[4,5-b]pyridin-2-yl)amino)-5-cyclopropyl-1-methylpyridin-2(1H)-one]: the Kd was in the range of 10 to 50 nM.
Molecule `Cn1c(Nc2cc(C(C)(C)C)n([C@H]3CCOC3)n2)nc2ncc(Oc3cnn4ccncc34)c(C#N)c21` [Example I-137, (S)-2-((5-(tert-butyl)-1-(tetrahydrofuran-3-yl)-1H-pyrazol-3-yl)amino)-1-methyl-6-(pyrazolo[1,5-a]pyrazin-3-yloxy)-1H-imidazo[4,5-b]pyridine-7-carbonitrile] came in with a dissociation constant (Kd) of 10 to 50 nM.
For `Cn1c(Nc2cc(C(F)(F)F)cn(CCCN3CCCC(F)(F)C3)c2=O)nc2ncc(Oc3cnn4ccncc34)c(Cl)c21` [Example I-138, 3-((7-chloro-1-methyl-6-(pyrazolo[1,5-a]pyrazin-3-yloxy)-1H-imidazo[4,5-b]pyridin-2-yl)amino)-1-(3-(3,3-difluoropiperidin-1-yl)propyl)-5-(trifluoromethyl)pyridin-2(1H)-one], the Kd is 10 to 50 nM.
As to `Cn1c(Nc2cc(C(F)(F)F)cn(CCO)c2=O)nc2ncc(Oc3cnn4ccnc(N5CCOCC5)c34)c(Cl)c21` [Example I-140, 3-((7-chloro-1-methyl-6-((4-morpholinopyrazolo[1,5-a]pyrazin-3-yl)oxy)-1H-imidazo[4,5-b]pyridin-2-yl)amino)-1-(2-hydroxyethyl)-5-(trifluoromethyl)pyridin-2(1H)-one], the Kd lay in the range of 10 to 50 nM.
Then `Cn1c(Nc2cc(C3CC3)cn(CCO)c2=O)nc2ncc(Oc3cnn4cccc(F)c34)c(Cl)c21` [Example I-141, 3-((7-chloro-6-((4-fluoropyrazolo[1,5-a]pyridin-3-yl)oxy)-1-methyl-1H-imidazo[4,5-b]pyridin-2-yl)amino)-5-cyclopropyl-1-(2-hydroxyethyl)pyridin-2(1H)-one], with below 10 nM.
With `Cn1c(Nc2cc(C3CC3)nn([C@@H]3CCOC3)c2=O)nc2ncc(Oc3cnn4ccccc34)c(Cl)c21` [Example I-142, (R)-4-((7-chloro-1-methyl-6-(pyrazolo[1,5-a]pyridin-3-yloxy)-1H-imidazo[4,5-b]pyridin-2-yl)amino)-6-cyclopropyl-2-(tetrahydrofuran-3-yl)pyridazin-3(2H)-one], the Kd was below 10 nM.
To `Cn1c(Nc2cc(C3CC3)nn([C@H]3CCOC3)c2=O)nc2ncc(Oc3cnn4ccccc34)c(Cl)c21` [Example I-143, (S)-4-((7-chloro-1-methyl-6-(pyrazolo[1,5-a]pyridin-3-yloxy)-1H-imidazo[4,5-b]pyridin-2-yl)amino)-6-cyclopropyl-2-(tetrahydrofuran-3-yl)pyridazin-3(2H)-one] belongs below 10 nM; to `Cn1cc(C(F)(F)C(F)(F)F)cc(Nc2nc3ncc(Oc4cnn5ccncc45)c(Cl)c3n2C)c1=O` [Example I-144, 3-((7-chloro-1-methyl-6-(pyrazolo[1,5-a]pyrazin-3-yloxy)-1H-imidazo[4,5-b]pyridin-2-yl)amino)-1-methyl-5-(perfluoroethyl)pyridin-2(1H)-one], below 10 nM; to `Cn1c(Nc2cc(C(=O)NCCN3CCOCC3)cc(C(F)(F)F)c2)nc2ncc(Oc3cnn4ccccc34)c(Cl)c21` [Example I-145, 3-((7-chloro-1-methyl-6-(pyrazolo[1,5-a]pyridin-3-yloxy)-1H-imidazo[4,5-b]pyridin-2-yl)amino)-N-(2-morpholinoethyl)-5-(trifluoromethyl)benzamide], 10 to 50 nM.
With `CCN1CCN(Cc2ccc(Nc3nc4ncc(Oc5cnn6ccncc56)c(Cl)c4n3C)cc2C(F)(F)F)CC1` [Example I-146, 7-chloro-N-(4-((4-ethylpiperazin-1-yl)methyl)-3-(trifluoromethyl)phenyl)-1-methyl-6-(pyrazolo[1,5-a]pyrazin-3-yloxy)-1H-imidazo[4,5-b]pyridin-2-amine], the Kd is below 10 nM.
Then `Cn1c(Nc2ccc(CN3CCOCC3)c(C(F)(F)F)c2)nc2ncc(Oc3cnn4ccncc34)c(Cl)c21` [Example I-149, 7-chloro-1-methyl-N-(4-(morpholinomethyl)-3-(trifluoromethyl)phenyl)-6-(pyrazolo[1,5-a]pyrazin-3-yloxy)-1H-imidazo[4,5-b]pyridin-2-amine], with below 10 nM.
On to `Cn1c(Nc2cc(C3CC3)cn([C@H]3C[C@@H](O)C3)c2=O)nc2ncc(Oc3cnn4cc(F)ccc34)c(Cl)c21` [Example I-151, cis-3-((7-chloro-6-((6-fluoropyrazolo[1,5-a]pyridin-3-yl)oxy)-1-methyl-1H-imidazo[4,5-b]pyridin-2-yl)amino)-5-cyclopropyl-1-(3-hydroxycyclobutyl)pyridin-2(1H)-one], for which the Kd is below 10 nM.
Then `Cn1c(Nc2cc(C3CC3)cn([C@H]3C[C@H](O)C3)c2=O)nc2ncc(Oc3cnn4cc(F)ccc34)c(Cl)c21` [Example I-152, trans-3-((7-chloro-6-((6-fluoropyrazolo[1,5-a]pyridin-3-yl)oxy)-1-methyl-1H-imidazo[4,5-b]pyridin-2-yl)amino)-5-cyclopropyl-1-(3-hydroxycyclobutyl)pyridin-2(1H)-one], with below 10 nM.
In the case of `COCCOc1ccc2c(Oc3cnc4nc(Nc5cc(C6CC6)nn(CCO)c5=O)n(C)c4c3Cl)cnn2c1` [Example I-153, 4-((7-chloro-6-((6-(2-methoxyethoxy)pyrazolo[1,5-a]pyridin-3-yl)oxy)-1-methyl-1H-imidazo[4,5-b]pyridin-2-yl)amino)-6-cyclopropyl-2-(2-hydroxyethyl)pyridazin-3(2H)-one], the Kd was below 10 nM.
To `CN1C(=O)c2cc(Nc3nc4ncc(Oc5cnn6ccncc56)c(Cl)c4n3C)cc(C(F)(F)F)c2C1(C)C` [Example I-154, 6-((7-chloro-1-methyl-6-(pyrazolo[1,5-a]pyrazin-3-yloxy)-1H-imidazo[4,5-b]pyridin-2-yl)amino)-2,3,3-trimethyl-4-(trifluoromethyl)isoindolin-1-one] belongs below 10 nM.
Turning to `COCCOc1ccc2c(Oc3cnc4nc(Nc5cc(C6CC6)cn(CCO)c5=O)n(C)c4c3Cl)cnn2c1` [Example I-155, 3-((7-chloro-6-((6-(2-methoxyethoxy)pyrazolo[1,5-a]pyridin-3-yl)oxy)-1-methyl-1H-imidazo[4,5-b]pyridin-2-yl)amino)-5-cyclopropyl-1-(2-hydroxyethyl)pyridin-2(1H)-one], the Kd was below 10 nM.
`CC(=O)N1CC2(CC(n3nc(Nc4nc5ncc(Oc6cnn7ccncc67)c(Cl)c5n4C)cc3C(F)(F)F)C2)C1` [Example I-156, 1-(6-(3-((7-chloro-1-methyl-6-(pyrazolo[1,5-a]pyrazin-3-yloxy)-1H-imidazo[4,5-b]pyridin-2-yl)amino)-5-(trifluoromethyl)-1H-pyrazol-1-yl)-2-azaspiro[3.3]heptan-2-yl)ethan-1-one] showed a Kd below 10 nM.
Molecule `Cn1c(Nc2cc(C(F)(F)F)cn(-c3cccnc3)c2=O)nc2ncc(Oc3cnn4ccccc34)c(C#N)c21` [Example I-157, 1-methyl-2-((2-oxo-5-(trifluoromethyl)-2H-[1,3′-bipyridin]-3-yl)amino)-6-(pyrazolo[1,5-a]pyridin-3-yloxy)-1H-imidazo[4,5-b]pyridine-7-carbonitrile] gave a Kd below 10 nM.
Then `Cn1c(Nc2cc(C(C)(C)C)n([C@H]3C[C@H](O)C3)n2)nc2ncc(Oc3cnn4ccncc34)c(C#N)c21` [Example I-158, trans-2-((5-(tert-butyl)-1-(3-hydroxycyclobutyl)-1H-pyrazol-3-yl)amino)-1-methyl-6-(pyrazolo[1,5-a]pyrazin-3-yloxy)-1H-imidazo[4,5-b]pyridine-7-carbonitrile], with below 10 nM; and `Cn1c(Nc2cc(C(F)(F)F)cn(CCCN3CCOCC3)c2=O)nc2ncc(Oc3cnn4ccccc34)c(C#N)c21` [Example I-159, 1-methyl-2-((1-(3-morpholinopropyl)-2-oxo-5-(trifluoromethyl)-1,2-dihydropyridin-3-yl)amino)-6-(pyrazolo[1,5-a]pyridin-3-yloxy)-1H-imidazo[4,5-b]pyridine-7-carbonitrile], with below 10 nM; and `Cn1c(Nc2cc(C(F)(F)F)cn(CCO)c2=O)nc2ncc(Oc3cnn4ccccc34)c(C#N)c21` [Example I-160, 2-((1-(2-hydroxyethyl)-2-oxo-5-(trifluoromethyl)-1,2-dihydropyridin-3-yl)amino)-1-methyl-6-(pyrazolo[1,5-a]pyridin-3-yloxy)-1H-imidazo[4,5-b]pyridine-7-carbonitrile], with below 10 nM.
Then `Cn1cc(-n2cc(C(F)(F)F)cc(Nc3nc4ncc(Oc5cnn6cc(F)ccc56)c(Cl)c4n3C)c2=O)cn1` [Example I-161, 3-((7-chloro-6-((6-fluoropyrazolo[1,5-a]pyridin-3-yl)oxy)-1-methyl-1H-imidazo[4,5-b]pyridin-2-yl)amino)-1-(1-methyl-1H-pyrazol-4-yl)-5-(trifluoromethyl)pyridin-2(1H)-one], with below 10 nM.
To `Cn1c(Nc2cc(C(F)(F)F)cn([C@H]3C[C@@H](O)C3)c2=O)nc2ncc(Oc3cnn4cc(F)ccc34)c(Cl)c21` [Example I-162, cis-3-((7-chloro-6-((6-fluoropyrazolo[1,5-a]pyridin-3-yl)oxy)-1-methyl-1H-imidazo[4,5-b]pyridin-2-yl)amino)-1-(3-hydroxycyclobutyl)-5-(trifluoromethyl)pyridin-2(1H)-one] belongs below 10 nM; to `Cn1c(Nc2cc(C(F)(F)F)cn(CCO)c2=O)nc2ncc(Oc3cnn4cc(F)ccc34)c(Cl)c21` [Example I-163, 3-((7-chloro-6-((6-fluoropyrazolo[1,5-a]pyridin-3-yl)oxy)-1-methyl-1H-imidazo[4,5-b]pyridin-2-yl)amino)-1-(2-hydroxyethyl)-5-(trifluoromethyl)pyridin-2(1H)-one], below 10 nM; to `CCn1c(C(C)(C)C)ncc(Nc2nc3ncc(Oc4cnn5ccncc45)c(Cl)c3n2C)c1=O` [Example I-164, 2-(tert-butyl)-5-((7-chloro-1-methyl-6-(pyrazolo[1,5-a]pyrazin-3-yloxy)-1H-imidazo[4,5-b]pyridin-2-yl)amino)-3-ethylpyrimidin-4(3H)-one], 10 to 50 nM.
